This is an account of results in patent US10781204B2, “TYK2 inhibitors and uses thereof” (Nimbus Lakshmi, Inc., priority 2015, dated 2020).

Assay [1] concerns JAK2-pSTAT5 (GM-CSF induced pSTAT5). Briefly: GM-CSF induced pSTAT5 in human PBMC. The class given is cell-based. The settings on record: Homo sapiens, PBMC, 20 min, 5 ng/mL GM-CSF. The method, then:
(§1) Human PBMC are isolated from buffy coat and are stored frozen for assays as needed. Cells for assay are thawed and resuspended in complete media containing serum, then cells are diluted to 1.67 E6 cells/ml so that 120 ul per well is 200,000 cells. 15 ul of compound or DMSO is added to the well at the desired concentrations and incubated at 1 hr at 37 C. 15 ul of stimulus (final concentration of 1.7 ng/mL IL-12) is added for 30 minutes prior to pSTAT4 and total STAT4 analysis using cell lysates prepared and analyzed by MSD reagents as per manufacturer protocol. The final DMSO concentration of compound in the assay is 0.1%.
Cells are prepared for analysis as in the above procedure and 15 ul of GM-CSF (final concentration 5 ng/mL) is added for 20 minutes prior to pSTAT5 and total STAT5 analysis using cell lysates prepared and analyzed by MSD reagents as per manufacturer protocol. The final DMSO concentration of compound in the assay is 0.1%.

The target in the next assay is TYK2 (Homo sapiens (Human), UniProt P29597). Briefly: Tyk2 radioactive kinase assay. The class given is biochemical. As to conditions: ATP 10 μM. The method, then: (§2) Peptide substrate, [KKSRGDYMTMQIG], (20 μM) is prepared in reaction buffer (20 mM Hepes pH 7.5, 10 mM MgCl2, 1 mM EGTA, 0.02% Brij35, 0.02 mg/mL BSA, 0.1 mM […], 2 mM DTT, 1% DMSO. TYK2 (Invitrogen) kinase is added, followed by compounds in DMSO. ^33PATP is added to initiate the reaction with ATP at 10 μM. Kinase reaction is incubated for 120 min at room temp and reactions are spotted onto P81 ion exchange paper (Whatman #3698-915), and then washed extensively in 0.75% phosphoric acid, prior to reading the radioactivity counts. For JAK2 (Invitrogen) kinase assay the peptide substrate poly[Glu:Tyr] (4:1), 0.2 mg/ml is used, in the reaction carried out the same as for TYK2.
TYK2, sequence (P29597 whole entry): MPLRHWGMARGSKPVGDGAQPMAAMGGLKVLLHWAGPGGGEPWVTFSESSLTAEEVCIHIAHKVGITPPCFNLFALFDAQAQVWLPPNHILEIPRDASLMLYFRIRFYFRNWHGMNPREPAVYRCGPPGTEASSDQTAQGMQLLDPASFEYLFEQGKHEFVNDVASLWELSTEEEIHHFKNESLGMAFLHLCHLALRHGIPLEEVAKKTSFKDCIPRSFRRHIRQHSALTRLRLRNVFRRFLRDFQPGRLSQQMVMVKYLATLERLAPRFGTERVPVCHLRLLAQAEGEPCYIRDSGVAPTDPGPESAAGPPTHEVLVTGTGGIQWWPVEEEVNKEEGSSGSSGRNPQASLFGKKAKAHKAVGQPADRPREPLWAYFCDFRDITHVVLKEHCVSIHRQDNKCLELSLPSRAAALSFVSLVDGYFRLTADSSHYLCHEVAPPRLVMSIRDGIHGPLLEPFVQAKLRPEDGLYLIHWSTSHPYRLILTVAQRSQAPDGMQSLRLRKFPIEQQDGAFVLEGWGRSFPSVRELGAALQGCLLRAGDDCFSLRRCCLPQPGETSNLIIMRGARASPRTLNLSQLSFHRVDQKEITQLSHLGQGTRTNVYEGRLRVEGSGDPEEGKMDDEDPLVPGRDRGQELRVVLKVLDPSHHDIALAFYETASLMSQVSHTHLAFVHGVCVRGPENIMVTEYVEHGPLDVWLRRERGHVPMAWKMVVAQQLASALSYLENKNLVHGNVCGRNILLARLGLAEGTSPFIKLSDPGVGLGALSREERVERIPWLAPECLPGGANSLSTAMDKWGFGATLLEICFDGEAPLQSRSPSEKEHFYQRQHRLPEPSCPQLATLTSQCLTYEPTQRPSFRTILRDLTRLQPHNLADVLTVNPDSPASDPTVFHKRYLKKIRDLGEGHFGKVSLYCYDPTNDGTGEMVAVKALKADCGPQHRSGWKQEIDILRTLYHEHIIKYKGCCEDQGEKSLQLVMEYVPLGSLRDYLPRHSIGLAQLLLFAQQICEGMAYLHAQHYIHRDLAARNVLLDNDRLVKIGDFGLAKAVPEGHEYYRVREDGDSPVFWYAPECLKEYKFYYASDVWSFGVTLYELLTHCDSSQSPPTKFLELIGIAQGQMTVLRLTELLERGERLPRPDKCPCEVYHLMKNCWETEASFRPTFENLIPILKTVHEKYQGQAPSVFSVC

In the next assay the target is JAK2 (Homo sapiens (Human), UniProt O60674). Briefly: JAK2 radioactive kinase assay. The class given is biochemical. As to conditions: ATP 10 μM. The method, then:
as §2

The subject of assay [2] is Tyk2-pSTAT4 (IL-12 induced pSTAT4). Briefly: IL-12 induced pSTAT4 in human PBMC. Format: cell-based. The settings on record: Homo sapiens, PBMC, 0.5 h, 1.7 ng/mL IL-12, 30 minutes. The method, then:
as §1

Structures are written as SMILES. pEC50, pKi: −log10 of the molar value. A value given as a limit tells only on which side of the number the result lay.

JAK2, sequence (O60674 whole entry): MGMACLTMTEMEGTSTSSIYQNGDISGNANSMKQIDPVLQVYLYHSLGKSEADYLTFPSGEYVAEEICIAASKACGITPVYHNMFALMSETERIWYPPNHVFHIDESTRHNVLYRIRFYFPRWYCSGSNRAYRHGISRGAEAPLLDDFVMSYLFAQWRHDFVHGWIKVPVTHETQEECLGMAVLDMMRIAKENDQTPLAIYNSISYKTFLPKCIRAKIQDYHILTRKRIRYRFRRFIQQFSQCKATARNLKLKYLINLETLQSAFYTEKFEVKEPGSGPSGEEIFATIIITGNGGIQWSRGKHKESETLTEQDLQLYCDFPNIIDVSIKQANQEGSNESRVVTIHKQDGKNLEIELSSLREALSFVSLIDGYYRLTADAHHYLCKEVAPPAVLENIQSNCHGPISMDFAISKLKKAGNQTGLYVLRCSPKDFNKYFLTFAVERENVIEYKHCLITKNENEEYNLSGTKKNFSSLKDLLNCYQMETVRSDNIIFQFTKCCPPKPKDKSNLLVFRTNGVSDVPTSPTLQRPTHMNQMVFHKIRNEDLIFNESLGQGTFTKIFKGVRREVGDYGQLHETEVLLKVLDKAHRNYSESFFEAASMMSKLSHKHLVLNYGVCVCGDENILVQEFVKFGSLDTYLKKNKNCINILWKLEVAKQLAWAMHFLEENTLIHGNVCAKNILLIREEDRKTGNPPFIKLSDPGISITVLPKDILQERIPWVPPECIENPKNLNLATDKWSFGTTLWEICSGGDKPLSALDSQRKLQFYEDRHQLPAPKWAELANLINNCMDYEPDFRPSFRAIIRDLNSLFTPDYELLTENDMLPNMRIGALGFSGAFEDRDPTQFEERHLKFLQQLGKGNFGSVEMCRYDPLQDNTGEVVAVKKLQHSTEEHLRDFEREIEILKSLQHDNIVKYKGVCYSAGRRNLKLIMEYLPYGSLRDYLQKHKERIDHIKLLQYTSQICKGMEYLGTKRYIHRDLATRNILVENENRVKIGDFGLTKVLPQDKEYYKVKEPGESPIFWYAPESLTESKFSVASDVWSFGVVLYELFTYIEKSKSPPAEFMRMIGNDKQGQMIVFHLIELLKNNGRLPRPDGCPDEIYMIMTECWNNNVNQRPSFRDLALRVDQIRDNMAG

`CCNC(=O)c1ccn(-c2cc(-c3c(F)cccc3F)nc3c2C(=O)NC3)n1` [I-3, 1-(2-(2,6-difluorophenyl)-5-oxo-6,7-dihydro-5H-pyrrolo[3,4-b]pyridin-4-yl)-N-ethyl-1H-pyrazole-3-carboxamide] showed a pEC50 in assay [1] below 5.70. Further, the pKi was 8.00 to 10.00 at TYK2 and 6.00 to 7.00 at JAK2.

Turning to `O=C1NCc2nc(-c3c(F)cccc3F)cc(-n3ccc(N4CCC5(CCOCC5)CC4)n3)c21` [I-9, 4-(3-(3-oxa-9-azaspiro[5.5]undecan-9-yl)-1H-pyrazol-1-yl)-2-(2,6-difluorophenyl)-6,7-dihydro-5H-pyrrolo[3,4-b]pyridin-5-one], the pEC50 in assay [1] was below 5.70. The pKi at TYK2 was 8.00 to 10.00; at JAK2, 6.00 to 7.00.

As to `N#Cc1cccc(F)c1-c1cc(-n2ccc(N3CCC4(C3)OCC(O)CO4)n2)c2c(n1)CNC2=O` (stereo not drawn) [I-192, 3-fluoro-2-(4-(3-(8-hydroxy-6,10-dioxa-2-azaspiro[4.5]decan-2-yl)-1H-pyrazol-1-yl)-5-oxo-6,7-dihydro-5H-pyrrolo[3,4-b]pyridin-2-yl)benzonitrile], the pEC50 in assay [1] was below 5.70. For the same molecule, the negative logarithm of the Ki (pKi) on TYK2 and at JAK2 was 8.00 to 10.00 in each case.

For the molecule `CC1(C#N)CCCN(c2ccn(-c3cc(-c4c(F)cccc4C#N)nc4c3C(=O)NC4)n2)C1` (stereo not drawn) [I-133, 1-(1-(2-(2-cyano-6-fluorophenyl)-5-oxo-6,7-dihydro-5H-pyrrolo[3,4-b]pyridin-4-yl)-1H-pyrazol-3-yl)-3-methylpiperidine-3-carbonitrile], the pEC50 in assay [1] was below 5.70. In addition, the pKi on TYK2 and on JAK2 was 8.00 to 10.00 throughout.

In turn, `CC1(C)COC(c2ccn(-c3cc(-c4c(F)cccc4C#N)nc4c3C(=O)NC4)n2)=N1` [I-60, 2-(4-(3-(4,4-dimethyl-4,5-dihydrooxazol-2-yl)-1H-pyrazol-1-yl)-5-oxo-6,7-dihydro-5H-pyrrolo[3,4-b]pyridin-2-yl)-3-fluorobenzonitrile] showed a pEC50 in assay [1] below 5.70. For the same molecule, the pKi is 8.00 to 10.00 at TYK2 and 7.00 to 8.00 at JAK2.

As for `N#Cc1cccc(F)c1-c1cc(-n2ccc(C3CCCO3)n2)c2c(n1)CNC2=O` (stereo not drawn) [I-101, 3-fluoro-2-(5-oxo-4-(3-(tetrahydrofuran-2-yl)-1H-pyrazol-1-yl)-6,7-dihydro-5H-pyrrolo[3,4-b]pyridin-2-yl)benzonitrile], the pEC50 in assay [1] was below 5.70. In addition, the results for the negative logarithm of the Ki (pKi) on TYK2 and on JAK2 were 8.00 to 10.00 and 7.00 to 8.00, respectively.

`N#Cc1cccc(F)c1-c1cc(-n2ccc(N3CCC[C@H](N)C3)n2)c2c(n1)CNC2=O` [I-74, (S)-2-(4-(3-(3-aminopiperidin-1-yl)-1H-pyrazol-1-yl)-5-oxo-6,7-dihydro-5H-pyrrolo[3,4-b]pyridin-2-yl)-3-fluorobenzonitrile] gave a pEC50 in assay [1] below 5.70. In addition, the figures for the pKi at TYK2 and on JAK2 were 8.00 to 10.00 and 7.00 to 8.00, respectively.

Regarding `N#Cc1cccc(F)c1-c1cc(-n2cc3c(n2)NCCC3)c2c(n1)CNC2=O` [I-75, 3-fluoro-2-(5-oxo-4-(4,5,6,7-tetrahydro-2H-pyrazolo[3,4-b]pyridin-2-yl)-6,7-dihydro-5H-pyrrolo[3,4-b]pyridin-2-yl)benzonitrile], the pEC50 in assay [1] was below 5.70. Moreover, the pKi on TYK2 and on JAK2 was 8.00 to 10.00 each time.

Consider `N#Cc1cccc(F)c1-c1cc(-n2ccc(C3CCOCC3)n2)c2c(n1)CNC2=O` [I-16, 3-fluoro-2-(5-oxo-4-(3-(tetrahydro-2H-pyran-4-yl)-1H-pyrazol-1-yl)-6,7-dihydro-5H-pyrrolo[3,4-b]pyridin-2-yl)benzonitrile], for which the pEC50 in assay [1] is below 5.70. In addition, the pKi on TYK2 was 8.00 to 10.00; on JAK2, 6.00 to 7.00.

Take `N#Cc1cccc(F)c1-c1cc(-n2ccc(N3CCOC[C@H]3CO)n2)c2c(n1)CNC2=O` [I-164, (R)-3-fluoro-2-(4-(3-(3-(hydroxymethyl)morpholino)-1H-pyrazol-1-yl)-5-oxo-6,7-dihydro-5H-pyrrolo[3,4-b]pyridin-2-yl)benzonitrile]: in assay [1], the pEC50 was below 5.70. Also, the pKi at TYK2 and at JAK2 was 8.00 to 10.00 in each case.

Regarding `C[C@@]1(O)CN(c2ccn(-c3cc(-c4c(F)cccc4C#N)nc4c3C(=O)NC4)n2)C[C@@](C)(O)C1` [I-145, 2-(4-(3-((3S,5S)-3,5-dihydroxy-3,5-dimethylpiperidin-1-yl)-1H-pyrazol-1-yl)-5-oxo-6,7-dihydro-5H-pyrrolo[3,4-b]pyridin-2-yl)-3-fluorobenzonitrile], the negative logarithm of the EC50 (pEC50) in assay [1] was below 5.70. The pKi at TYK2 is 8.00 to 10.00; at JAK2, 7.00 to 8.00.

`N#Cc1cccc(F)c1-c1cc(-n2ccc(N3CCCC(N)C3)n2)c2c(n1)CNC2=O` (stereo not drawn) [I-68, 2-(4-(3-(3-aminopiperidin-1-yl)-1H-pyrazol-1-yl)-5-oxo-6,7-dihydro-5H-pyrrolo[3,4-b]pyridin-2-yl)-3-fluorobenzonitrile] gave a pEC50 in assay [1] below 5.70. The values for the pKi at TYK2 and on JAK2 were 8.00 to 10.00 and 7.00 to 8.00, respectively.

Regarding `CC1CCC(O)CN1c1ccn(-c2cc(-c3c(F)cccc3C#N)nc3c2C(=O)NC3)n1` (stereo not drawn) [I-96, 3-fluoro-2-(4-(3-(5-hydroxy-2-methylpiperidin-1-yl)-1H-pyrazol-1-yl)-5-oxo-6,7-dihydro-5H-pyrrolo[3,4-b]pyridin-2-yl)benzonitrile], in assay [1], the pEC50 was below 5.70. The values for the pKi at TYK2 and at JAK2 were 8.00 to 10.00 and 7.00 to 8.00, respectively.

`CN1CC2(CCN(c3ccn(-c4cc(-c5c(F)cccc5C#N)nc5c4C(=O)NC5)n3)CC2)C1` [I-110, 3-fluoro-2-(4-(3-(2-methyl-2,7-diazaspiro[3.5]nonan-7-yl)-1H-pyrazol-1-yl)-5-oxo-6,7-dihydro-5H-pyrrolo[3,4-b]pyridin-2-yl)benzonitrile] gave a pEC50 in assay [1] below 5.70. Moreover, the pKi on TYK2 and on JAK2 was at most 6.00 throughout.

Turning to `CS(=O)(=O)N[C@@H]1CCN(c2ccn(-c3cc(-c4c(F)cccc4C#N)nc4c3C(=O)NC4)n2)C1` [I-134, (R)-N-(1-(1-(2-(2-cyano-6-fluorophenyl)-5-oxo-6,7-dihydro-5H-pyrrolo[3,4-b]pyridin-4-yl)-1H-pyrazol-3-yl)pyrrolidin-3-yl)methanesulfonamide], the pKi on TYK2 and at JAK2 was 8.00 to 10.00 each time. Besides, the pEC50 in assay [2] is 5.70 to 7.00.

On to `N#Cc1cccc(F)c1-c1cc(-n2ccc(N3CC[C@H](C#N)C3)n2)c2c(n1)CNC2=O` [I-128, (S)-1-(1-(2-(2-cyano-6-fluorophenyl)-5-oxo-6,7-dihydro-5H-pyrrolo[3,4-b]pyridin-4-yl)-1H-pyrazol-3-yl)pyrrolidine-3-carbonitrile], for which the negative-log Ki (pKi) is 8.00 to 10.00 at TYK2 and 7.00 to 8.00 at JAK2. For the same molecule, the pEC50 in assay [2] was 7.00 to 7.52.

Turning to `CC(C)n1cc(-c2cc(-c3c(F)cccc3C#N)nc3c2C(=O)NC3)cn1` [I-61, 3-fluoro-2-(4-(1-isopropyl-1H-pyrazol-4-yl)-5-oxo-6,7-dihydro-5H-pyrrolo[3,4-b]pyridin-2-yl)benzonitrile], the negative-log Ki (pKi) at TYK2 was 8.00 to 10.00; on JAK2, 7.00 to 8.00. This molecule also showed a pEC50 in assay [2] of 5.70 to 7.00.

In assay [1], `N#Cc1cccc(F)c1-c1cc(-n2ccc(N3CCCC(O)(C(F)(F)F)C3)n2)c2c(n1)CNC2=O` (stereo not drawn) [I-80, 3-fluoro-2-(4-(3-(3-hydroxy-3-(trifluoromethyl)piperidin-1-yl)-1H-pyrazol-1-yl)-5-oxo-6,7-dihydro-5H-pyrrolo[3,4-b]pyridin-2-yl)benzonitrile] showed a pEC50 below 5.70. Besides, the pKi at TYK2 is 8.00 to 10.00; on JAK2, 7.00 to 8.00.

`N#Cc1cccc(F)c1-c1cc(-n2ccc(N3CC[C@@H](F)[C@@H](O)C3)n2)c2c(n1)CNC2=O` [I-173, 3-fluoro-2-(4-(3-((3S,4R)-4-fluoro-3-hydroxypiperidin-1-yl)-1H-pyrazol-1-yl)-5-oxo-6,7-dihydro-5H-pyrrolo[3,4-b]pyridin-2-yl)benzonitrile]: the pEC50 in assay [1] is below 5.70. The values for the pKi on TYK2 and on JAK2 were 10.00 to 11.05 and 8.00 to 10.00, respectively.

Take `N#Cc1cccc(F)c1-c1cc(-n2ccc(N3CCC[C@@H](N)C3)n2)c2c(n1)CNC2=O` [I-73, (R)-2-(4-(3-(3-aminopiperidin-1-yl)-1H-pyrazol-1-yl)-5-oxo-6,7-dihydro-5H-pyrrolo[3,4-b]pyridin-2-yl)-3-fluorobenzonitrile]: the pKi on TYK2 and at JAK2 was 8.00 to 10.00 throughout. Further, in assay [2], the pEC50 is 5.70 to 7.00.

With `CO[C@H]1CCN(c2ccn(-c3cc(-c4c(F)cccc4C#N)nc4c3C(=O)NC4)n2)C[C@@]1(C)O` [I-229, 3-fluoro-2-(4-(3-((3R,4S)-3-hydroxy-4-methoxy-3-methylpiperi-din-1-yl)-1H-pyrazol-1-yl)-5-oxo-6,7-dihydro-5H-pyrrolo[3,4-b]pyridin-2-yl)benzonitrile], the values for the pKi on TYK2 and at JAK2 were 10.00 to 11.05 and 7.00 to 8.00, respectively. Further, the negative-log EC50 (pEC50) in assay [2] was 5.70 to 7.00.
